Data as given in patent US20160002248A1, “GLS1 INHIBITORS FOR TREATING DISEASE” (Board of Regents, The University of Texas System, priority 2014, published 2016).

Assays:
[1] = test system: A549 cells; assay: Proliferation Assay (A549 cell viability, Cell Titer Fluor); assay type: cell-based; settings: Homo sapiens, 72 hours
Experimental: A549 cells were routinely maintained in RPMI 1640 media (Gibco catalog number 11875-093) supplemented with 10% dialyzed fetal bovine serum using a humidified incubator (37° C., 5% CO2 and ambient O2). In preparation for the viability assay, cells were inoculated into 384-well black CulturPlates (Perkin Elmer) at a density of 1000 cells/well in a volume of 40 uL. Following a 24-hour incubation at 37° C., 5% CO2 and ambient O2, cells were treated with compound (10 uL) in a final DMSO concentration of 0.5% (v/v). The microplates were then incubated for 72 hours (37° C., 5% CO2 and ambient O2). Cell Titer Fluor (Promega) was subsequently added (10 uL of 6× reagent) and mixed for 15 minutes at room temperature. The plates were then incubated for 30 minutes (37° C., 5% CO2 and ambient O2) and fluorescence was subsequently read on the Perkin Elmer Envision plate reader. EC50 values were calculated using a four-parameter logistic curve fit.

[2] = molecular target: T1, purified recombinant human GAC (GLS1) (Homo sapiens, UniProt O94925); assay: GLS1 Enzymatic Activity Assay (dual-coupled enzymatic assay); assay type: biochemical
T1 sequence (O94925 55-598 isoform O94925-3 limits assumed): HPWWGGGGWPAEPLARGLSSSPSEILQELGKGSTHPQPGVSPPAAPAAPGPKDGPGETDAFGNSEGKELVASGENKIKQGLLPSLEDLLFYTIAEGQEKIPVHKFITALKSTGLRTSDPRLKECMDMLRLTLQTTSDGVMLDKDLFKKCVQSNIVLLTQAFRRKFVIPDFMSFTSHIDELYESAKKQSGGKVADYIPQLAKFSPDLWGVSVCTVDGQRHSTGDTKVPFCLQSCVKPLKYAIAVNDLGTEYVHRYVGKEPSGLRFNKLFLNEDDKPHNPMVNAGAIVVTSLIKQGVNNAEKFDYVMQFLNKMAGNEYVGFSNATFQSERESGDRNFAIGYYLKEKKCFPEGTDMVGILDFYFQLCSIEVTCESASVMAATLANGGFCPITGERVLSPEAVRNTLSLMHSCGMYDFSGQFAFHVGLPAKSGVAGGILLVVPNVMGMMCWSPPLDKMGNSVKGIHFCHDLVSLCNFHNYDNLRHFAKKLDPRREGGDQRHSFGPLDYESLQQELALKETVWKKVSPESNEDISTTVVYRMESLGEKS
Experimental: GLS1 Enzymatic Activity Assay
The inhibition of purified recombinant human GAC by varying concentrations of inhibitors is assessed via a dual-coupled enzymatic assay. The glutamate produced by the glutaminase reaction is used by glutamate oxidase to produce α-ketoglutarate, ammonia, and hydrogen peroxide, with this hydrogen peroxide subsequently being used by horseradish peroxidase to produce resorufin in the presence of Amplex UltraRed. The assay buffer consisted of 50 mM Hepes (pH 7.4), 0.25 mM EDTA and 0.1 mM Triton X-100. GAC was incubated with potassium phosphate (10 minutes at room temperature) prior to incubation with inhibitor (10 minutes at room temperature). The final reaction conditions were as follows: 2 nM GAC, 50 mM potassium phosphate, 100 mU/mL glutamate oxidase (Sigma), 1 mM glutamine (Sigma), 100 mU/mL horseradish peroxidase (Sigma), 75 μM Amplex UltraRed (Life Technologies), and 1% (v/v) DMSO. The production of resorufin was monitored on a Perkin Elmer Envision plate reader (excitation 530 nm, emission 590 nm) either in a kinetics or endpoint mode (at 20 minutes). IC50 values were calculated using a four-parameter logistic curve fit.

EC50 [1] [nM] | IC50 [2] [nM] | SMILES
500 to 5000 | 100 to 500 | Cn1cc(CNC(=O)c2cn(CCCCc3cc4cc(C5CC5)[nH]c4nn3)nn2)cn1 [Example 51, 1-(4-{6-cyclopropyl-7H-pyrrolo[2,3-c]pyridazin-3-yl}butyl)-N-[(1-methyl-1H-pyrazol-4-yl)methyl]-1H-1,2,3-triazole-4-carboxamide]
100 to 500 | < 100 | O=C(NCc1cc(C(F)(F)F)ccn1)c1cn(CCCCc2cc3cc(-c4ccccc4F)[nH]c3nn2)nn1 [Example 191]
100 to 500 | < 100 | Cc1ccc(CNC(=O)c2cn(CCCCc3cc4c(-c5ccc(OC(F)(F)F)cc5)c(C5CC5)[nH]c4nn3)nn2)cn1 [Example 165, 1-(4-{6-cyclopropyl-5-[4-(trifluoromethoxy)phenyl]-7H-pyrrolo[2,3-c]pyridazin-3-yl}butyl)-N-[(6-methylpyridin-3-yl)methyl]-1H-1,2,3-triazole-4-carboxamide]
500 to 5000 | < 100 | CC(=O)Nc1cccc(-c2c(C3CC3)[nH]c3nnc(CCCCn4cc(C(=O)NCc5ccc(C)nc5)nn4)cc23)c1 [Example 154, 1-{4-[6-cyclopropyl-5-(3-acetamidophenyl)-7H-pyrrolo[2,3-c]pyridazin-3-yl]butyl}-N-[(6-methylpyridin-3-yl)methyl]-1H-1,2,3-triazole-4-carboxamide]
500 to 5000 | < 100 | O=C(NCc1ccccn1)c1cn(CCCCc2cc3c(-c4ccc(O)cc4)c(C4CC4)[nH]c3nn2)nn1 [Example 138, 1-{4-[6-cyclopropyl-5-(4-hydroxyphenyl)-7H-pyrrolo[2,3-c]pyridazin-3-yl]butyl}-N-(pyridin-2-ylmethyl)-1H-1,2,3-triazole-4-carboxamide]
< 100 | < 100 | COc1ccccc1-c1cc2cc(CCCCn3cc(C(=O)NCc4ccc(C)nc4)nn3)nnc2[nH]1 [Example 228, 1-{4-[6-(2-methoxyphenyl)-7H-pyrrolo[2,3-c]pyridazin-3-yl]butyl}-N-[(6-methylpyridin-3-yl)methyl]-1H-1,2,3-triazole-4-carboxamide]
100 to 500 | < 100 | O=C(NCc1ccc(C(F)(F)F)nc1)c1cn(CCCCc2cc3c(-c4ccc(F)cc4F)c(C4CC4)[nH]c3nn2)nn1 [Example 217, 1-(4-(6-cyclopropyl-5-(2,4-difluorophenyl)-7H-pyrrolo[2,3-c]pyridazin-3-yl)butyl)-N-((6-(trifluoromethyl)pyridin-3-yl)methyl)-1H-1,2,3-triazole-4-carboxamide]
500 to 5000 | 100 to 500 | Cc1cccc(CNC(=O)c2cn(CCCCc3cc4cc(C5CC5)[nH]c4nn3)nn2)n1 [Example 55, 1-(4-{6-cyclopropyl-7H-pyrrolo[2,3-c]pyridazin-3-yl}butyl)-N-[(6-methylpyridin-2-yl)methyl]-1H-1,2,3-triazole-4-carboxamide]
500 to 5000 | 100 to 500 | O=C(NCc1cccc(OC(F)(F)F)c1)c1cn(CCCCc2cc3cc(C4CNC4)[nH]c3nn2)nn1 [Example 107, 1-{4-[6-(azetidin-3-yl)-7H-pyrrolo[2,3-c]pyridazin-3-yl]butyl}-N-{[3-(trifluoromethoxy)phenyl]methyl}-1H-1,2,3-triazole-4-carboxamide]
< 100 | < 100 | Cc1ccc(CNC(=O)c2cn(CCCCc3cc4c(-c5ccoc5)c(C5CC5)[nH]c4nn3)nn2)cn1 [Example 172, 1-{4-[6-cyclopropyl-5-(furan-3-yl)-7H-pyrrolo[2,3-c]pyridazin-3-yl]butyl}-N-[(6-methylpyridin-3-yl)methyl]-1H-1,2,3-triazole-4-carboxamide]
< 100 | < 100 | CCOC(=O)N1CC(c2cc3cc(CCCCn4cc(C(=O)NCc5cc(OC(F)(F)F)ccc5F)nn4)nnc3[nH]2)C1 [Example 132, ethyl 3-(3-{4-[4-({[2-fluoro-5-(trifluoromethoxy)phenyl]methyl}carbamoyl)-1H-1,2,3-triazol-1-yl]butyl)-7H-pyrrolo[2,3-c]pyridazin-6-yl)azetidine-1-carboxylate]
100 to 500 | < 100 | COc1cccc(-c2c(C3CC3)[nH]c3nnc(CCCCn4cc(C(=O)NCc5ccccn5)nn4)cc23)c1 [Example 121, 1-{4-[6-cyclopropyl-5-(3-methoxyphenyl)-7H-pyrrolo[2,3-c]pyridazin-3-yl]butyl)-N-(pyridin-2-ylmethyl)-1H-1,2,3-triazole-4-carboxamide]
500 to 5000 | < 100 | Cc1ccc(CNC(=O)c2cn(CCCCc3cc4c(Cl)c(C5CC5)[nH]c4nn3)nn2)cn1 [Example 19, 1-(4-(5-Chloro-6-cyclopropyl-7H-pyrrolo[2,3-c]pyridazin-3-yl)butyl)-N-((6-methylpyridin-3-yl)methyl)-1H-1,2,3-triazole-4-carboxamide 2,2,2-trifluoroacetate]
500 to 5000 | < 100 | CCOC(=O)c1cccc(CNC(=O)c2cn(CCCCc3cc4cc(C5CC5)[nH]c4nn3)nn2)n1 [Example 88, ethyl 6-({[1-(4-{6-cyclopropyl-7H-pyrrolo[2,3-c]pyridazin-3-yl}butyl)-1H-1,2,3-triazol-4-yl]formamido}methyl)pyridine-2-carboxylate]
500 to 5000 | < 100 | O=C(NCc1cccc(OC(F)(F)F)c1)c1cn(CCCCc2cc3c(-c4ccccn4)c(-c4ccccc4F)[nH]c3nn2)nn1 [Example 175, 1-{4-[6-(2-fluorophenyl)-5-(pyridin-2-yl)-7H-pyrrolo[2,3-c]pyridazin-3-yl]butyl}-N-{[3-(trifluoromethoxy)phenyl]methyl}-1H-1,2,3-triazole-4-carboxamide]
< 100 | < 100 | O=C(NCc1cc(C(F)(F)F)ccn1)c1cn(CCCCc2cc3c(-c4ccoc4)c(C4CC4)[nH]c3nn2)nn1 [Example 184, 1-{4-[6-cyclopropyl-5-(furan-3-yl)-7H-pyrrolo[2,3-c]pyridazin-3-yl]butyl}-N-{[4-(trifluoromethyl)pyridin-2-yl]methyl}-1H-1,2,3-triazole-4-carboxamide]
500 to 5000 | 100 to 500 | O=C(NCc1ccccn1)c1cn(CCCCc2cc3c(Cc4ccccn4)c(C4CC4)[nH]c3nn2)nn1 [Example 126, 1-{4-[6-cyclopropyl-5-(pyridin-2-ylmethyl)-7H-pyrrolo[2,3-c]pyridazin-3-yl]butyl}-N-(pyridin-2-ylmethyl)-1H-1,2,3-triazole-4-carboxamide]
100 to 500 | < 100 | CC(C)(O)c1ccc(CNC(=O)c2cn(CCCCc3cc4c(C5CC5)c(-c5ccccc5F)[nH]c4nn3)nn2)cn1 [Example 174, 1-{4-[5-cyclopropyl-6-(2-fluorophenyl)-7H-pyrrolo[2,3-c]pyridazin-3-yl]butyl}-N-{[6-(2-hydroxypropan-2-yl)pyridin-3-yl]methyl}-1H-1,2,3-triazole-4-carboxamide]
500 to 5000 | < 100 | CS(=O)(=O)Nc1cccc(-c2c(C3CC3)[nH]c3nnc(CCCCn4cc(C(=O)NCc5ccccn5)nn4)cc23)c1 [Example 137, 1-{4-[6-cyclopropyl-5-(3-methanesulfonamidophenyl)-7H-pyrrolo[2,3-c]pyridazin-3-yl]butyl}-N-(pyridin-2-ylmethyl)-1H-1,2,3-triazole-4-carboxamide]
500 to 5000 | 100 to 500 | O=C(Cc1cccc(OC(F)(F)F)c1)Nc1nnc(CCCCc2cc3cc[nH]c3nn2)s1 [Example 63, N-[5-(4-{7H-pyrrolo[2,3-c]pyridazin-3-yl}butyl)-1,3,4-thiadiazol-2-yl]-2-[3-(trifluoromethoxy)phenyl]acetamide]
< 100 | < 100 | CC(C)COC(=O)N1CC(c2cc3cc(CCCCn4cc(C(=O)NCc5cc(OC(F)(F)F)ccc5F)nn4)nnc3[nH]2)C1 [Example 185, 2-methylpropyl 3-(3-{4-[4-({[2-fluoro-5-(trifluoromethoxy)phenyl]methyl}carbamoyl)-1H-1,2,3-triazol-1-yl]butyl)-7H-pyrrolo[2,3-c]pyridazin-6-yl)azetidine-1-carboxylate]
